Assay results published in patent publication US10976319B2, “Cell response assay for cancer and methods of producing and using same” (Siemens Healthcare Diagnostics Inc., priority 2011, dated 2021).
Where “and” joins values, the source holds several entries; their conditions need not be identical. Equal values may be shown once.

Key:
[1] = system: prostate cancer cells; assay: Cell response assay for prostate cancer, cells before and after camptothecin treatment; format: cell-based
Description: (§1) The procedure to test the method was to collect 4 mL normal whole blood fresh into a VACUTAINER® tube (BD 6 mL VACUTAINER® K2EDTA tube, 10.8 mg, ref 367863, Becton Dickinson, Oakville, ON) and transfer the blood into a round centrifuge tube sealed with top. Cancer cells were added by 40 μL of prostate cell cancer suspension to obtain a range of 3000 to 8000 cells/mL (8 cells/μL or 1-2 per high powered filed HRP (HRP=0.2 μL)). The blood was lysed by adding 3 mL of lysis buffer (155 mM NH4Cl, 20 mM KHCO3, 0.1 mM Na2EDTA, pH 7.4). The tubes were rolled tubes to assure that the cells were evenly distributed and that lysis was complete, and then the sample was spun down for 15 minutes at 12,000 rpm. Next, the plasma was decanted as waste supernatant, and 4.0 mL of TES buffer (50 mM N-Tris [Hydroxymethyl]-2-aminoethane-sulfonic acid: TES, pH 7.4, 2150 mM NaCl, 2 mM MgSO4 and 1 mM KCO3) and 1% albumin was added, and the tube was rocked to mix the cells. The tube was spun down again for 15 minutes at 12,000 rpm, and the supernatant was decanted as waste. A final 2.0 mL of TES wash buffer was added with rocking to mix cells.
(§2) The cells were then reacted with the reagents by taking 0.5 mL of washed blood to the centrifuge tube, and 40 μL of antibodies for PSA labeled with Cy5 and 40 μL of antibodies for urokinase like plasminogen activator (uPA) or plasminogen activator inhibitor (PAI-1) labeled with Texas Red (at working stock of 0.001 to 0.1 mg/mL) and PL2L piwi like labeled with FITC (at working stock of 0.001 to 0.1 mg/mL) were added. Next, 10 μl of a 100 μg/ml 4,6 Diamidino-2-phenylindole dihydrochloride (DAPI; a nucleic acid binding probe) was added from a solution in TES buffer. This was followed by incubation for 15 minutes at 37° C.
(§3) The sample was centrifuged down for 5 minutes @ 7500 rpm, and the supernatant was decanted off as waste (^˜450 μL). 500 μL of TES buffer was then added, and the sample was vortexed and centrifuged down at 5 minutes @ 7500 rpm. Again, the supernatant was decanted off by tapping as waste (^˜450 μL). A final 500 μL of TES wash buffer was added for final imaging, and 5 μL of the solution was placed on a slide with a long cover slip of glass. Phase contrast and fluorescence microscopy was conducted with the Leica DM5000 (Leica Microsystems, Buffalo Grove, Ill.).
(§4) The Texas Red label (ex 592, em 614 nm) was measured with a excitation band pass filter at 540-580 nm and emission band pass filter at 610-680 nm. The FITC label (ex 488, em 525 nm) was measured with an excitation band pass filter at 460-500 nm and an emission band pass filter at 512-543 nm. The DAPI probe (ex 355, em 460 nm) was measured with an excitation band pass filter at 340-380 nm and an emission band pass filter at 450-490 nm. The Cy5 label (ex 646, em 676 nm) was measured with an excitation band pass filter at 590-650 nm and an emission band pass filter at 665-735 nm.
A novel cell response assay for prostate cancer was developed by using PSA as a tissue type marker for prostate carcinoma (Biomarker A) that is always present in the disease state. […] Chemo resistance nature (Biomarker C) was determined using PL2L piwi like antigen to determine the inhibitory response to tissue invasiveness. […]

[2] = system: breast cancer cells; assay: Cell response assay for breast cancer, cells before and after camptothecin treatment; format: cell-based
Description: as §1, with “breast” for “prostate”, “cells/4” for “cells/μL”
as §2, with “HER2/neu” for “PSA”
as §3, with “Ill.). A sample of cells was stained with the PSS-550 probe (ex 553, em 615 nm) and measured with an excitation band pass filter at 540-580 nm and an emission band pass filter at 610-680 nm to determine cell membrane flopping as a measure of cell death in addition to cell counts.” for “Ill.).”
as §4, with “measured with an excitation band” for “measured with a excitation band”, “nm and an emission band” for “nm and emission band”
A novel cell response assay for breast cancer was developed by using HER2/neu as a tissue type marker for carcinoma breast cancer (Biomarker A) that is always present in the disease state. […]

[3] = cited from earlier work; for log Ka: Eu2+ complexed by amine poly carboxylate ions
[4] = camptothecin concentration adjusted
[5] = when the cell death % was highest

## CC[C@@]1(O)C(=O)OCc2c1cc1n(c2=O)Cc2cc3ccccc3nc2-1 [camptothecin]
[1]; as the cell death % increased
  cancer cell count: decrease
  phosphatidylserine flopping: increased
[1]; [4]
  % of the cancer cells in cultures killed: > 80% and 60% and 40%
[1]; [5]
  biomarker B, namely uPA and PA1 (metastatic potential): increase
  biomarker C, namely PL2L piwi like (chemo resistance): decrease
[2]; as the cell death % increased
  cancer cell count: decrease
  phosphatidylserine flopping: increased
[2]; [4]
  % of the cancer cells in cultures killed: > 80% and 60% and 40%
[2]; [5]
  biomarker B, namely uPA and PA1 (metastatic potential): increase
  biomarker C, namely PL2L piwi like (chemo resistance): decrease

## O=C(O)CN(CC(=O)O)C1CCCCC1N(CC(=O)O)CC(=O)O (centres unmarked) [DCTA]
[3]
  log Ka: 19

## CC(=O)CC(=O)c1ccccc1 [HBA, benzoylacetone]
[3]; europium chelate
  log K: 18.9

## O=C(O)CNCC(=O)O [IMDA]
[3]
  log Ka: 6

## O=C(O)CN(CCN(CC(=O)O)CC(=O)O)CCN(CC(=O)O)CC(=O)O [DTPA]
[3]
  log Ka: 23

## O=C(CC(=O)C(F)(F)F)c1cccs1 [TTA, thenoyltriflouracetone]
[3]; europium chelate, when converted to enolate
  association constant (log Ka): 8.0

## O=C(O)CN(CCN(CC(=O)O)CC(=O)O)CC(=O)O [EDTA]
[3]
  log Ka: 17

## O=C(O)CN(CCO)CCN(CC(=O)O)CC(=O)O [HEDTA]
[3]
  log Ka: 15
